Values of other authors, collected in patent publication US11304968B2, “Pharmaceutical compositions comprising a hydroxyethylquercetin glucuronide” (JANSSEN PHARMACEUTICA NV, priority 2018, dated 2022).
Values belong to the molecule of their own block, whether it stands above or below them.

Key:
cortisol response = settings: in vitro
[1] = humans, oral; baicalin 616 mg with baicalein 52.5 mg; wogonoside 117.2 mg with wogonin 32 mg
[2] = rat
[3] = rat, in vivo, po
[4] = human, in vivo, po
[5] = system: anxiety and depressive behaviors in the offspring; settings: pregnant rats fed a high fat diet
cortisol levels = settings: depressed, stressed rats
[6] = not given; remark: listed apart in the source

Molecule: C[C@@H]1O[C@@H](OC[C@H]2O[C@@H](Oc3c(-c4ccc(O)c(O)c4)oc4cc(OCCO)cc(O)c4c3=O)[C@H](O)[C@@H](O)[C@@H]2O)[C@H](O)[C@H](O)[C@H]1O [MonoHER, 7-monohydroxyethylrutoside]
effect on cortisol response and cortisol resistance (cortisol response): protects the proper cortisol response and decreases cortisol resistance

Molecule: O=C(O)[C@H]1O[C@@H](Oc2cc3oc(-c4ccccc4)cc(=O)c3c(O)c2O)[C@H](O)[C@@H](O)[C@@H]1O [baicalin]
solubility in water: poorly soluble in water
urinary COV of metabolites [1]: about 10%
site of absorption [2]: preferentially absorbs in the rat stomach

detectability as metabolite [3]: not detectable
volunteers in whom the metabolite was detectable [4]: 13 of the 16
Molecule: mono-3′-O-hydroxyethyl quercetin-glucuronide [Mono-3′-O-HEQG]

Molecule: C[C@@H]1O[C@@H](OC[C@H]2O[C@@H](Oc3c(-c4ccc(OCCO)c(OCCO)c4)oc4cc(OCCO)cc(O)c4c3=O)[C@H](O)[C@@H](O)[C@@H]2O)[C@H](O)[C@H](O)[C@H]1O [troxerutin, 7,3′,4′-trihydroxyethylrutoside]
anxiety and depressive behaviors in the offspring [5]: reduced anxiety and depressive behaviors in the offspring
effect on cortisol levels (cortisol levels): decreased cortisol levels

Molecule: O=C(O)[C@H]1O[C@@H](Oc2cc3oc(-c4ccc(O)cc4)cc(=O)c3c(O)c2O)[C@H](O)[C@@H](O)[C@@H]1O [scutellarin]
solubility in water: poorly soluble in water
pKa [6]: about 2.7
